This note sets out measurements from ChEMBL document CHEMBL1150191, “Isolation of Eupalmerin, a Minor Cembranoid Diterpene from the Caribbean Gorgonian Eunicea mammosa” (J Nat Prod, 1991).

The data set can be described thus: Cytotoxicity against CHOK1 cells. The format is cell-based, Cricetulus griseus. Conditions: chinese hamster, CHO-K1 cells; read-out: ED50 (the source's name).

Converted amounts (≈) assume the structure as drawn.

For the compound `C=C1C(=O)O[C@H]2[C@H](O)[C@@H](C)CCC/C(C)=C/CC[C@@]3(C)O[C@H]3C[C@@H]12` [EUPALMERIN], the CC50 turned out to be 5.46 µg/mL (≈ 16.3 µM).
